Results from PubChem BioAssay AID1845217 (Molecular Pharmacology Branch, DTP, NCI, 2023).

Test system: VA-ES-BJ tumor spheroid viability
Assay: Anticancer human tumor VA-ES-BJ cell line growth inhibition;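 note: spheroids exposed to compounds for seven days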;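 for viability, T/C: percent of DMSO vehicle control viability so 100% = untreated growth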
Settings: spheroids with HUVEC and MSC; for viability, T/C: stronger effect = lower value
Procedure, shortened: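 Single agents and combinations were tested on spheroids built from tumor cells plus HUVEC and hMSC, at half-log dilutions starting at or near clinical Cmax, else 10 microM; final DMSO 0.25% (v/v).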

## COc1cc(C)[nH]c(=O)c1CN1CCc2c(Cl)cc(C(OC)C3COC3)c(Cl)c2C1=O (stereo not given) + COc1cc2c(cc1O)CCNC21CSC2c3c(OC(C)=O)c(C)c4c(c3C(COC1=O)N1C(O)C3Cc5cc(C)c(OC)c(O)c5C(C21)N3C)OCO4
Curve of first compound, second compound 30 pM
  IC50: 933 nM
Curve of first compound, second compound 94.9 pM
  IC50: 981 nM
Curve of first compound, second compound 0.0003 µM
  IC50: < 31.6 nM
Curve of first compound, second compound 0.000949 µM
  IC50: < 31.6 nM
Curve of first compound, second compound 0.003 µM
  IC50: < 31.6 nM
Second compound 30 pM, first compound 0.0316 µM
  viability, T/C: 75.7%
Second compound 30 pM, first compound 0.1 µM
  viability, T/C: 71.1%
Second compound 30 pM, first compound 0.316 µM
  viability, T/C: 58.6%
Second compound 30 pM, first compound 1 µM
  viability, T/C: 49.4%
Second compound 30 pM, first compound 3.16 µM
  viability, T/C: 45.2%
Second compound 30 pM, first compound 10 µM
  viability, T/C: 40.9%
Second compound 94.9 pM, first compound 0.0316 µM
  viability, T/C: 66.9%
Second compound 94.9 pM, first compound 0.1 µM
  viability, T/C: 68.6%
Second compound 94.9 pM, first compound 0.316 µM
  viability, T/C: 59.3%
Second compound 94.9 pM, first compound 1 µM
  viability, T/C: 49%
Second compound 94.9 pM, first compound 3.16 µM
  viability, T/C: 43.1%
Second compound 94.9 pM, first compound 10 µM
  viability, T/C: 36.8%
Second compound 0.0003 µM, first compound 0.0316 µM
  viability, T/C: 38.5%
Second compound 0.0003 µM, first compound 0.1 µM
  viability, T/C: 36.2%
Second compound 0.0003 µM, first compound 0.316 µM
  viability, T/C: 33.1%
Second compound 0.0003 µM, first compound 1 µM
  viability, T/C: 36.7%
Second compound 0.0003 µM, first compound 3.16 µM
  viability, T/C: 27.2%
Second compound 0.0003 µM, first compound 10 µM
  viability, T/C: 29.4%
Second compound 0.000949 µM, first compound 0.0316 µM
  viability, T/C: 2.44%
Second compound 0.000949 µM, first compound 0.1 µM
  viability, T/C: 2.53%
Second compound 0.000949 µM, first compound 0.316 µM
  viability, T/C: 2.69%
Second compound 0.000949 µM, first compound 1 µM
  viability, T/C: 2.75%
Second compound 0.000949 µM, first compound 3.16 µM
  viability, T/C: 2.25%
Second compound 0.000949 µM, first compound 10 µM
  viability, T/C: 1.84%
Second compound 0.003 µM, first compound 0.0316 µM
  viability, T/C: 1.25%
Second compound 0.003 µM, first compound 0.1 µM
  viability, T/C: 1.11%
Second compound 0.003 µM, first compound 0.316 µM
  viability, T/C: 1.37%
Second compound 0.003 µM, first compound 1 µM
  viability, T/C: 1.01%
Second compound 0.003 µM, first compound 3.16 µM
  viability, T/C: 1.1%
Second compound 0.003 µM, first compound 10 µM
  viability, T/C: 2%

## CNCc1ccc(-c2cc(-c3nc(-c4ccc(S(=O)(=O)C(C)C)cc4)cnc3N)on2)cc1 + Cn1nnc2c(C(N)=O)ncn2c1=O
Curve of first compound, second compound 1 µM
  IC50: 404 nM
Curve of first compound, second compound 3.16 µM
  IC50: 370 nM
Curve of first compound, second compound 10 µM
  IC50: 339 nM
Curve of first compound, second compound 31.6 µM
  IC50: 289 nM
Curve of first compound, second compound 100 µM
  IC50: 188 nM
Second compound 1 µM, first compound 0.00949 µM
  viability, T/C: 87.8%
Second compound 1 µM, first compound 0.03 µM
  viability, T/C: 82%
Second compound 1 µM, first compound 0.0949 µM
  viability, T/C: 84%
Second compound 1 µM, first compound 0.3 µM
  viability, T/C: 63.3%
Second compound 1 µM, first compound 0.949 µM
  viability, T/C: 11.8%
Second compound 1 µM, first compound 3 µM
  viability, T/C: 2.45%
Second compound 3.16 µM, first compound 0.00949 µM
  viability, T/C: 85.5%
Second compound 3.16 µM, first compound 0.03 µM
  viability, T/C: 85.3%
Second compound 3.16 µM, first compound 0.0949 µM
  viability, T/C: 74.4%
Second compound 3.16 µM, first compound 0.3 µM
  viability, T/C: 59.9%
Second compound 3.16 µM, first compound 0.949 µM
  viability, T/C: 12.8%
Second compound 3.16 µM, first compound 3 µM
  viability, T/C: 1.99%
Second compound 10 µM, first compound 0.00949 µM
  viability, T/C: 86.9%
Second compound 10 µM, first compound 0.03 µM
  viability, T/C: 92.2%
Second compound 10 µM, first compound 0.0949 µM
  viability, T/C: 79.1%
Second compound 10 µM, first compound 0.3 µM
  viability, T/C: 56.1%
Second compound 10 µM, first compound 0.949 µM
  viability, T/C: 10.4%
Second compound 10 µM, first compound 3 µM
  viability, T/C: 2.81%
Second compound 31.6 µM, first compound 0.00949 µM
  viability, T/C: 91.1%
Second compound 31.6 µM, first compound 0.03 µM
  viability, T/C: 85%
Second compound 31.6 µM, first compound 0.0949 µM
  viability, T/C: 72.7%
Second compound 31.6 µM, first compound 0.3 µM
  viability, T/C: 53.5%
Second compound 31.6 µM, first compound 0.949 µM
  viability, T/C: 10.2%
Second compound 31.6 µM, first compound 3 µM
  viability, T/C: 3.57%
Second compound 100 µM, first compound 0.00949 µM
  viability, T/C: 95.6%
Second compound 100 µM, first compound 0.03 µM
  viability, T/C: 76.7%
Second compound 100 µM, first compound 0.0949 µM
  viability, T/C: 68%
Second compound 100 µM, first compound 0.3 µM
  viability, T/C: 41.7%
Second compound 100 µM, first compound 0.949 µM
  viability, T/C: 11.7%
Second compound 100 µM, first compound 3 µM
  viability, T/C: 2.21%

## Cn1nnc2c(C(N)=O)ncn2c1=O
Compound 1 µM
  viability, T/C: 104% [middle of 10 runs]
Compound 3.16 µM
  viability, T/C: 103% [middle of 10 runs]
Compound 10 µM
  viability, T/C: 107% [middle of 10 runs]
Compound 100 µM
  viability, T/C: 104% [middle of 10 runs]
Compound alone, run of 12/02/2019
  IC50: > 100000 nM
